Earlier results in patent EP0353388A2, “Floor treatment product” (DYNA-5, INC., priority 1988, dated 1990).

Details: first dissociation constant of the acid

SMILES	first pK value (pK^I)
O=C(O)C(=O)O [oxalic acid]	1.25
O=C(O)CN(CCN(CC(=O)O)CC(=O)O)CC(=O)O [ethylenediaminetetraacetic acid]	2.00
